According to ChEMBL document CHEMBL5352488, “Development of novel S-N3-DABO derivatives as potent non-nucleoside reverse transcriptase inhibitors with improved potency and selectivity” (Eur J Med Chem, 2023):

Key:
[1] = system: Human immunodeficiency virus 1; test: Anti-HIV activity against drug resistant HIV-1 harboring Y181C mutant infected in human MT4 cells assessed as inhibition of virus-induced cytopathic effect by MTT assay; format: functional, organism-based; conditions: Human immunodeficiency virus 1, MT4
[2] = biological target: Human immunodeficiency virus type 1 reverse transcriptase (Human immunodeficiency virus 1, UniProt Q72547); test: Inhibition of wild type HIV-1 reverse transcriptase assessed as assessed as inhibition of biotin deoxyuridine triphosphate incorporation into […]
[3] = system: Human immunodeficiency virus 1; test: Anti-HIV activity against drug resistant HIV-1 harboring E138K mutant infected in human MT4 cells assessed as inhibition of virus-induced cytopathic effect by MTT assay; format: functional, organism-based; conditions: Human immunodeficiency virus 1, MT4
[4] = Cytotoxicity against human MT4 cells assessed as reduction in cell viability by MTT assay; format: toxicity, cell-based
[5] = system: Human immunodeficiency virus 1; test: Anti-HIV activity against wild type HIV-1 IIIB infected in human MT4 cells assessed as inhibition of virus-induced cytopathic effect by MTT assay; format: functional, organism-based; conditions: Human immunodeficiency virus 1, IIIB
[6] = system: Human immunodeficiency virus 1; test: Anti-HIV activity against drug resistant HIV-1 harboring Y188L mutant infected in human MT4 cells assessed as inhibition of virus-induced cytopathic effect by MTT assay; format: functional, organism-based; conditions: Human immunodeficiency virus 1, MT4
[7] = system: Human immunodeficiency virus 1; test: Anti-HIV activity against drug resistant HIV-1 harboring K103N mutant infected in human MT4 cells assessed as inhibition of virus-induced cytopathic effect by MTT assay; format: functional, organism-based; conditions: Human immunodeficiency virus 1, MT4
[8] = system: Human immunodeficiency virus 1; test: Anti-HIV activity against drug resistant HIV-1 harboring F227L/V106A mutant infected in human MT4 cells assessed as inhibition of virus-induced cytopathic effect by MTT assay; format: functional, organism-based; conditions: Human immunodeficiency virus 1, MT4
[9] = system: Human immunodeficiency virus 1; test: Anti-HIV activity against drug resistant HIV-1 harboring L100I mutant infected in human MT4 cells assessed as inhibition of virus-induced cytopathic effect by MTT assay; format: functional, organism-based; conditions: Human immunodeficiency virus 1, MT4
[10] = Selectivity index, ratio of CC50 for cytotoxicity against human MT4 cells assessed as reduction in cell viability by MTT assay to EC50 for anti-HIV activity against wild type HIV-1 IIIB infected in human MT4 cells assessed as inhibition of virus-induced cytopathic effect by MTT assay; format: toxicity, cell-based; conditions: read-out: Ratio CC50/EC50
[11] = Acute toxicity in mouse assessed as change in body weight at 1000 mg/kg, po; format: organism-based; conditions: in vivo
[12] = Acute toxicity in mouse assessed as histopathological changes in liver at 1000 mg/kg, po by Hematoxylin and eosin staining based microscopy; format: organism-based; conditions: in vivo
[13] = Acute toxicity in mouse assessed as histopathological changes in lung at 1000 mg/kg, po by Hematoxylin and eosin staining based microscopy; format: organism-based; conditions: in vivo
[14] = biological target: T1, Cytochrome P450 3A4 (Homo sapiens, UniProt P08684); test: Inhibition of CYP3A4M in human liver microsomes using midazolam as substrate measured after 10 mins in presence of NADPH; format: ADME, Microsome
T1 sequence (P08684 whole entry): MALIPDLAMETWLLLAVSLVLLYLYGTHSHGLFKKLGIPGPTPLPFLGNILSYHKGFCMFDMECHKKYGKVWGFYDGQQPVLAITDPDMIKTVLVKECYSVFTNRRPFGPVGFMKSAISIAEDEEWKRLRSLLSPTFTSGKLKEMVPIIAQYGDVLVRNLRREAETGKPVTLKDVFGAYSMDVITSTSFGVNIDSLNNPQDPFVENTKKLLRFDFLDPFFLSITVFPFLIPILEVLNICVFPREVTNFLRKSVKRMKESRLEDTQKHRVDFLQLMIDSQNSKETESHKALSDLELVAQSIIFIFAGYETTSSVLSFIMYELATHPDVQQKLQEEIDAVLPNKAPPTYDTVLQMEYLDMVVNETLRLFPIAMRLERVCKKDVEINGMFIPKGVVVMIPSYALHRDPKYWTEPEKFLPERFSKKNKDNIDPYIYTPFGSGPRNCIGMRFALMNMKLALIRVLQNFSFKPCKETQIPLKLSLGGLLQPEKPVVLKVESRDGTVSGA

[15] = Acute toxicity in mouse assessed as histopathological changes in brain at 1000 mg/kg, po by Hematoxylin and eosin staining based microscopy; format: organism-based; conditions: in vivo
[16] = biological target: Cytochrome P450 2C19 (Homo sapiens, UniProt P33261); test: Inhibition of CYP2C19 in human liver microsomes using mephenytoin as substrate measured after 10 mins in presence of NADPH; format: ADME, Microsome
Chain of Cytochrome P450 2C19 (P33261 whole entry): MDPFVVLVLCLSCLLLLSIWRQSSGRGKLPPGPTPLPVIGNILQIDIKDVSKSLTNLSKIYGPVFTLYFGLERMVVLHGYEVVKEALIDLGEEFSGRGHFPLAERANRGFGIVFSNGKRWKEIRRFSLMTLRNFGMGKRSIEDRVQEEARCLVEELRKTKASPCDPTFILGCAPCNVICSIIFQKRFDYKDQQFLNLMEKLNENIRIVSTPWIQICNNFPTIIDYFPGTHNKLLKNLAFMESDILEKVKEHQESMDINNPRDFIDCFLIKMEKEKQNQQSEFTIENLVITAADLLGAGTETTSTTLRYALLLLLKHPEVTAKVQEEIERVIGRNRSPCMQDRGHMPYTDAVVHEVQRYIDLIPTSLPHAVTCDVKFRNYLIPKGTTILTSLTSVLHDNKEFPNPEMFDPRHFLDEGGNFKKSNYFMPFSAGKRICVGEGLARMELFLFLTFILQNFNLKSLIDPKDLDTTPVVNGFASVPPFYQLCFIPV

[17] = biological target: Cytochrome P450 2C9 (Homo sapiens, UniProt P11712); test: Inhibition of CYP2C9 in human liver microsomes using tolbutamide as substrate measured after 10 mins in presence of NADPH; format: ADME, Microsome
Chain of Cytochrome P450 2C9 (P11712 whole entry): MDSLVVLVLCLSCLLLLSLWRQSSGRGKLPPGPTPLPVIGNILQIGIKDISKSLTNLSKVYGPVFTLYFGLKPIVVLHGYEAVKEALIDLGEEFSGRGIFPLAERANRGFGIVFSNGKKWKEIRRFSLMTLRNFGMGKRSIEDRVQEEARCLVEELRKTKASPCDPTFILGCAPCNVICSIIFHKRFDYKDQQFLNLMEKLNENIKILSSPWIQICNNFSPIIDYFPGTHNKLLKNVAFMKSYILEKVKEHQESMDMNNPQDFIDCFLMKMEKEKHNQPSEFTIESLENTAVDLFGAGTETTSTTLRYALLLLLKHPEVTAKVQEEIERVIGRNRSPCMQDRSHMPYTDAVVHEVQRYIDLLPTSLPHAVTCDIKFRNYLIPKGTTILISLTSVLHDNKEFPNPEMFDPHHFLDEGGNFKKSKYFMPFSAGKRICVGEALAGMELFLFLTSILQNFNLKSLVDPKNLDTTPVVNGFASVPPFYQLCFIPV

[18] = Acute toxicity in mouse assessed as histopathological changes in kidney at 1000 mg/kg, po by Hematoxylin and eosin staining based microscopy; format: organism-based; conditions: in vivo
[19] = biological target: hERG (KCNH2) (Homo sapiens, UniProt Q12809); test: Inhibition of human ERG expressed in CHO cells at 40 uM by automated patch-clamp electrophysiological assay; format: toxicity, cell-based; conditions: CHO cells that express hERG
Chain of hERG (KCNH2) (Q12809 whole entry): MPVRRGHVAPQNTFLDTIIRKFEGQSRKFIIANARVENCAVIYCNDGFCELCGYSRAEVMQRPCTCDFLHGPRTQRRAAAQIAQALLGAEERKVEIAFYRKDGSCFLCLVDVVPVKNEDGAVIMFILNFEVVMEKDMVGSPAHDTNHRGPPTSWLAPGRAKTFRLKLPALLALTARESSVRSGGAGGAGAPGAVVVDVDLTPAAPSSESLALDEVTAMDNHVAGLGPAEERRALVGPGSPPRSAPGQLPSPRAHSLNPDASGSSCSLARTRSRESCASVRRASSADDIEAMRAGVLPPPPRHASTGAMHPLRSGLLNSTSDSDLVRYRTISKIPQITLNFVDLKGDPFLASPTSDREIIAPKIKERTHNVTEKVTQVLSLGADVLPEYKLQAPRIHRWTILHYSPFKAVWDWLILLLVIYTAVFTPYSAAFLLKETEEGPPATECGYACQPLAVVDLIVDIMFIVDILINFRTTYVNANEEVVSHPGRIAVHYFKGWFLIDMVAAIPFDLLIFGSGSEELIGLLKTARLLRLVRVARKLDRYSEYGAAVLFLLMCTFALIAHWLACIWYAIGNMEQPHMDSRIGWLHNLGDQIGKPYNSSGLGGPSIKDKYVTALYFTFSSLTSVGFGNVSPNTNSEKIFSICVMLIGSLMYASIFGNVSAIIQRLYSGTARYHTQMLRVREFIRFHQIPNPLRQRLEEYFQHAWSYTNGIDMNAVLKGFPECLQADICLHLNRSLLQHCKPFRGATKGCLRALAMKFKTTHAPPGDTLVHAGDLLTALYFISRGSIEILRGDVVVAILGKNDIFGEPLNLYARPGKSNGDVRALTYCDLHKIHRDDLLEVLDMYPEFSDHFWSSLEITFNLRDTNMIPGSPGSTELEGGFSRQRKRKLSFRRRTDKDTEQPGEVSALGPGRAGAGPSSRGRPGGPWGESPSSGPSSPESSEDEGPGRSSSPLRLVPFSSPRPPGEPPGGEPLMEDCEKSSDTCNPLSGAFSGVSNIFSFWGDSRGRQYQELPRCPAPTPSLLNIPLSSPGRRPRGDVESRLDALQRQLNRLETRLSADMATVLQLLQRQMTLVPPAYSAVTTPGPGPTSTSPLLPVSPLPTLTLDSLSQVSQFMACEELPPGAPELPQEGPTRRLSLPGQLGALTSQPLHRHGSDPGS

[20] = biological target: Cytochrome P450 2D6 (Homo sapiens, UniProt P10635); test: Inhibition of CYP2D6 in human liver microsomes using dextromethorphan as substrate measured after 10 mins in presence of NADPH; format: ADME, Microsome
Chain of Cytochrome P450 2D6 (P10635 whole entry): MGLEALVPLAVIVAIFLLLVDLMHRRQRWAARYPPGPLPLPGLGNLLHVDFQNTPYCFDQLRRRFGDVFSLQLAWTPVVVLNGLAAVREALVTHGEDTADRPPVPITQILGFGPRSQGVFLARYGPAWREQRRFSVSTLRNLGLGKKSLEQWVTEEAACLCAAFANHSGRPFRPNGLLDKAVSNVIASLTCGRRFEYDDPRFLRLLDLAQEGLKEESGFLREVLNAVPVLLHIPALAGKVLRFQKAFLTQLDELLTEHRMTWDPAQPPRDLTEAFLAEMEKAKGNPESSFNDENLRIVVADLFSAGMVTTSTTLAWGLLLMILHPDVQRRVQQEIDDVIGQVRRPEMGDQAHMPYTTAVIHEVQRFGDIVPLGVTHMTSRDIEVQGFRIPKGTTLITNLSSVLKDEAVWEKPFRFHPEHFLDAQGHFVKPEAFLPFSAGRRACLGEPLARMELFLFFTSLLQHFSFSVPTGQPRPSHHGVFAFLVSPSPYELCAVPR

[21] = Acute toxicity in mouse assessed as histopathological changes in spleen at 1000 mg/kg, po by Hematoxylin and eosin staining based microscopy; format: organism-based; conditions: in vivo
[22] = Acute toxicity in mouse assessed as histopathological changes in heart at 1000 mg/kg, po by Hematoxylin and eosin staining based microscopy; format: organism-based; conditions: in vivo
[23] = biological target: T1, Cytochrome P450 3A4; test: Inhibition of CYP3A4T in human liver microsomes using testosterone as substrate measured after 10 mins in presence of NADPH; format: ADME, Microsome
[24] = biological target: T2, Cytochrome P450 1A2 (Homo sapiens, UniProt P05177); test: Inhibition of CYP1A2 in human liver microsomes using phenacetin as substrate measured after 10 mins in presence of NADPH; format: ADME, Microsome
T2 sequence (P05177 whole entry): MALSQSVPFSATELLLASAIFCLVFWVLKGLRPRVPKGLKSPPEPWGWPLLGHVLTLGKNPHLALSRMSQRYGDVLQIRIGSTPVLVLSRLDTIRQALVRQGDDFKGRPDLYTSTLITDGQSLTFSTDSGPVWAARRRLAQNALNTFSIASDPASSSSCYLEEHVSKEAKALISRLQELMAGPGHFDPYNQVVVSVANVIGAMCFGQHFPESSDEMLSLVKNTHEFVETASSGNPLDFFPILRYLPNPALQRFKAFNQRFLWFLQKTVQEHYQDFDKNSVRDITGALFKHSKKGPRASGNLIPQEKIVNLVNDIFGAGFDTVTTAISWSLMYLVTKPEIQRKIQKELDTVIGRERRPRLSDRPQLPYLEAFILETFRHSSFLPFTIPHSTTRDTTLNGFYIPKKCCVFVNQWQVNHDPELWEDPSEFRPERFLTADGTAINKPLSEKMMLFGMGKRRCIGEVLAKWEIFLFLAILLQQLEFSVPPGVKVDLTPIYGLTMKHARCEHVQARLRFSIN

CCc1c(C(N=[N+]=[N-])c2cc(C)cc(C)c2)nc(SC(C)C)[nH]c1=O (centres undefined)
EC50 [1]: 4.68 µM
IC50 [2]: 0.1 µM
EC50 [3]: 0.41 µM
CC50 [4]: > 350 µM
EC50 [5]: 0.067 µM
EC50 [6]: > 350 µM
EC50 [7]: 4.82 µM
EC50 [8]: 14.3 µM
EC50 [9]: 0.97 µM
selectivity ratio [10]: > 5240

CCc1c(C(N=[N+]=[N-])c2ccc(C)cc2)nc(SC(C)C)[nH]c1=O (centres undefined)
EC50 [1]: 114 µM
IC50 [2]: 0.17 µM
EC50 [3]: 0.45 µM
CC50 [4]: > 364 µM
EC50 [5]: 0.16 µM
EC50 [6]: > 364 µM
EC50 [7]: 3.9 µM
EC50 [8]: 314 µM
EC50 [9]: 0.13 µM
selectivity ratio [10]: > 2300

Cc1cc(C)cc(C(N=[N+]=[N-])c2nc(SC(C)C)[nH]c(=O)c2C)c1 (centres undefined)
Activity [11]: Non-Toxic
Activity [12]: Non-Toxic
Activity [13]: Non-Toxic
IC50 [14]: > 50 µM
Activity [15]: Non-Toxic
IC50 [16]: 27.1 µM
EC50 [1]: 2.28 µM
IC50 [17]: 35.8 µM
Activity [18]: Non-Toxic
IC50 [2]: 0.08 µM
inhibition at 40 µM [19]: 41.4%
IC50 [20]: > 50 µM
Activity [21]: Non-Toxic
EC50 [3]: 0.26 µM
CC50 [4]: > 364 µM
Activity [22]: Non-Toxic
EC50 [5]: 0.053 µM
EC50 [6]: 203 µM
EC50 [7]: 2.51 µM
EC50 [8]: 7.88 µM
IC50 [23]: > 50 µM
EC50 [9]: 1.05 µM
selectivity ratio [10]: > 6820
IC50 [24]: > 50 µM
